Consider 15 molecules from patent US7511077B2, “Diamine calcium channel blockers” (Neuromed Pharmaceuticals Ltd., priority 2005, dated 2009).

Read-outs that look alike come from different tables or passages of the source.

The target in test [1] is T1, rat brain N-type calcium channel subunits (α1B+α2δ+β1b cDNA subunits) (Rattus norvegicus, UniProt Q02294).
T1 construct: expressed in transfected cells; host or cells: HEK 293
The test is described as follows: N-type calcium channel block, whole cell patch clamp in HEK 293 cells. The format is cell-based. Particulars: holding potential −80 mV to +10 mV. The procedure: N-type calcium channel blocking activity was assayed in human embryonic kidney cells, HEK 293, stably transfected with the rat brain N-type calcium channel subunits (α1B+α2δ+β1b cDNA subunits). Alternatively, N-type calcium channels (α1B+α2δ+β1b cDNA subunits), L-type channels (α1C+α2δ+β1b cDNA subunits) and P/Q-type channels (α1A+α2δ+β1b cDNA subunits) were transiently expressed in HEK 293 cells. Briefly, cells were cultured in Dulbecco's modified eagle medium (DMEM) supplemented with 10% fetal bovine serum, 200 U/ml penicillin and 0.2 mg/ml streptomycin at 37° C. with 5% CO2. At 85% confluency cells were split with 0.25% trypsin/1 mM EDTA and plated at 10% confluency on glass coverslips. At 12 hours the medium was replaced and the cells transiently transfected using a standard calcium phosphate protocol and the appropriate calcium channel cDNA's. Fresh DMEM was supplied and the cells transferred to 28° C./5% CO2. Cells were incubated for 1 to 2 days prior to whole cell recording.
Whole cell patch clamp experiments were performed using an Axopatch 200B amplifier (Axon Instruments, Burlingame, Calif.) linked to a personal computer equipped with pCLAMP software. The external and internal recording solutions contained, respectively, 5 mM BaCl2, 10 mM MgCl2, 10 mM HEPES, 40 mM TEACl, 10 mM glucose, 87.5 mM CsCl (pH 7.2) and 108 mM CsMS, 4 mM MgCl2, 9 mM EGTA, 9 mM HEPES (pH 7.2). Currents were typically elicited from a holding potential of −80 mV to +10 mV using Clampex software (Axon Instruments). Typically, currents were first elicited with low frequency stimulation (0.067 Hz) and allowed to stabilize prior to application of the compounds. The compounds were then applied during the low frequency pulse trains for two to three minutes to assess tonic block, and subsequently the pulse frequency was increased to 0.2 Hz to assess frequency dependent block. Data were analyzed using Clampfit (Axon Instruments) and SigmaPlot 4.0 (Jandel Scientific).
(The patch-clamp technique gives a direct electrical read-out from membranes.)

Test [2] addresses T2, human α1G T-type channels (Homo sapiens, UniProt O43497).
T2 construct: expressed in transfected cells; host or cells: HEK cell lines
The test is described as follows: T-type calcium channel block, patch clamp in HEK cell lines. Format: cell-based. The procedure:
Standard patch-clamp techniques were employed to identify blockers of T-type currents. Briefly, previously described HEK cell lines stably expressing human α1G T-type channels were used for all the recordings (passage #: 4-20, 37° C., 5% CO2). To obtain T-type currents, plastic dishes containing semi-confluent cells were positioned on the stage of a ZEISS AXIOVERT S100 microscope after replacing the culture medium with external solution (see below). Whole-cell patches were obtained using pipettes (borosilicate glass with filament, O.D.: 1.5 mm, I.D.: 0.86 mm, 10 cm length), fabricated on a SUTTER P-97 puller with resistance values of ˜5 MΩ (see below for internal solution).
T-type currents were reliably obtained by using two voltage protocols: • (1) “non-inactivating”, and (2) “inactivation”
In the non-inactivating protocol, the holding potential is set at −110 mV and with a pre-pulse at −100 mV for 1 second prior to the test pulse at −40 mV for 50 ms. In the inactivation protocol, the pre-pulse is at approximately −85 mV for 1 second, which inactivates about 15% of the T-type channels.
Test compounds were dissolved in external solution, 0.1-0.01% DMSO. After ˜10 min rest, they were applied by gravity close to the cell using a WPI microfil tubing. The “non-inactivated” pre-pulse was used to examine the resting block of a compound. The “inactivated” protocol was employed to study voltage-dependent block. However, the initial data shown below were mainly obtained using the non-inactivated protocol only. IC50 values are shown for various compounds of the invention in Table 5.

Test [3] has as its system Rings from Rat Mesenteric Artery maximally pre-contracted with PE. Description: Relaxation of pre-contracted rings from rat mesenteric artery. Particulars: compound at 10^−5 M, rings maximally pre-contracted with PE at 10^−4 M, read-out: Mesenteric artery Max % relax. On the procedure: Sprague-Dawley rats (350-400 g, Charles River Canada) were anaesthetized with sodium pentobarbital (60 mg/kg). The mesenteric arteries were removed and suspended in a tissue bath filled with Krebs-Henseleit solution aerated with 95% O2 and 5% CO2 at 37° C. The tissues were equilibrated for one hour prior to the construction of a concentration-response curve to phenylephrine (PE). Following recovery of the response to PE, a second curve to PE was constructed at 5 min after the addition of a calcium channel blocker (n=2-8, each from a separate rat) or the vehicle (50 μl of equimolar DMSO). After recovery, a third and fourth curve to PE were constructed after addition of a higher concentration of blocker or vehicle. The protocol was repeated using portal veins (n=4, each from a separate rat).

In test [4] the test system is Rings from Rat Portal Vein maximally pre-contracted with PE. The test is described as follows: Relaxation of pre-contracted rings from rat portal vein. As to conditions: compound at 10^−5 M, rings maximally pre-contracted with PE at 10^−4 M, read-out: Portal vein Max % relax.
Test [5] can be described thus: Blood pressure reduction in SHR. Format: in vivo.
Test [6] has as its system T-type over L-type channels. As to conditions: cited from earlier work.
The mark [7] stands for this setting: low frequency stimulation 0.067 Hz (tonic block), read-out: IC50 @ 0.067 Hz.
Where [8] appears, read: pulse frequency 0.2 Hz (frequency dependent block), read-out: IC50 @ 0.2 Hz.
Setting [9] is: non-inactivating protocol, pre-pulse −100 mV (resting block), read-out: IC50 @ −100 mV.
Setting [10] is: −80 mV (inactivation protocol, voltage-dependent block), read-out: IC50 @ −80 mV.

T1 sequence (Q02294 whole entry): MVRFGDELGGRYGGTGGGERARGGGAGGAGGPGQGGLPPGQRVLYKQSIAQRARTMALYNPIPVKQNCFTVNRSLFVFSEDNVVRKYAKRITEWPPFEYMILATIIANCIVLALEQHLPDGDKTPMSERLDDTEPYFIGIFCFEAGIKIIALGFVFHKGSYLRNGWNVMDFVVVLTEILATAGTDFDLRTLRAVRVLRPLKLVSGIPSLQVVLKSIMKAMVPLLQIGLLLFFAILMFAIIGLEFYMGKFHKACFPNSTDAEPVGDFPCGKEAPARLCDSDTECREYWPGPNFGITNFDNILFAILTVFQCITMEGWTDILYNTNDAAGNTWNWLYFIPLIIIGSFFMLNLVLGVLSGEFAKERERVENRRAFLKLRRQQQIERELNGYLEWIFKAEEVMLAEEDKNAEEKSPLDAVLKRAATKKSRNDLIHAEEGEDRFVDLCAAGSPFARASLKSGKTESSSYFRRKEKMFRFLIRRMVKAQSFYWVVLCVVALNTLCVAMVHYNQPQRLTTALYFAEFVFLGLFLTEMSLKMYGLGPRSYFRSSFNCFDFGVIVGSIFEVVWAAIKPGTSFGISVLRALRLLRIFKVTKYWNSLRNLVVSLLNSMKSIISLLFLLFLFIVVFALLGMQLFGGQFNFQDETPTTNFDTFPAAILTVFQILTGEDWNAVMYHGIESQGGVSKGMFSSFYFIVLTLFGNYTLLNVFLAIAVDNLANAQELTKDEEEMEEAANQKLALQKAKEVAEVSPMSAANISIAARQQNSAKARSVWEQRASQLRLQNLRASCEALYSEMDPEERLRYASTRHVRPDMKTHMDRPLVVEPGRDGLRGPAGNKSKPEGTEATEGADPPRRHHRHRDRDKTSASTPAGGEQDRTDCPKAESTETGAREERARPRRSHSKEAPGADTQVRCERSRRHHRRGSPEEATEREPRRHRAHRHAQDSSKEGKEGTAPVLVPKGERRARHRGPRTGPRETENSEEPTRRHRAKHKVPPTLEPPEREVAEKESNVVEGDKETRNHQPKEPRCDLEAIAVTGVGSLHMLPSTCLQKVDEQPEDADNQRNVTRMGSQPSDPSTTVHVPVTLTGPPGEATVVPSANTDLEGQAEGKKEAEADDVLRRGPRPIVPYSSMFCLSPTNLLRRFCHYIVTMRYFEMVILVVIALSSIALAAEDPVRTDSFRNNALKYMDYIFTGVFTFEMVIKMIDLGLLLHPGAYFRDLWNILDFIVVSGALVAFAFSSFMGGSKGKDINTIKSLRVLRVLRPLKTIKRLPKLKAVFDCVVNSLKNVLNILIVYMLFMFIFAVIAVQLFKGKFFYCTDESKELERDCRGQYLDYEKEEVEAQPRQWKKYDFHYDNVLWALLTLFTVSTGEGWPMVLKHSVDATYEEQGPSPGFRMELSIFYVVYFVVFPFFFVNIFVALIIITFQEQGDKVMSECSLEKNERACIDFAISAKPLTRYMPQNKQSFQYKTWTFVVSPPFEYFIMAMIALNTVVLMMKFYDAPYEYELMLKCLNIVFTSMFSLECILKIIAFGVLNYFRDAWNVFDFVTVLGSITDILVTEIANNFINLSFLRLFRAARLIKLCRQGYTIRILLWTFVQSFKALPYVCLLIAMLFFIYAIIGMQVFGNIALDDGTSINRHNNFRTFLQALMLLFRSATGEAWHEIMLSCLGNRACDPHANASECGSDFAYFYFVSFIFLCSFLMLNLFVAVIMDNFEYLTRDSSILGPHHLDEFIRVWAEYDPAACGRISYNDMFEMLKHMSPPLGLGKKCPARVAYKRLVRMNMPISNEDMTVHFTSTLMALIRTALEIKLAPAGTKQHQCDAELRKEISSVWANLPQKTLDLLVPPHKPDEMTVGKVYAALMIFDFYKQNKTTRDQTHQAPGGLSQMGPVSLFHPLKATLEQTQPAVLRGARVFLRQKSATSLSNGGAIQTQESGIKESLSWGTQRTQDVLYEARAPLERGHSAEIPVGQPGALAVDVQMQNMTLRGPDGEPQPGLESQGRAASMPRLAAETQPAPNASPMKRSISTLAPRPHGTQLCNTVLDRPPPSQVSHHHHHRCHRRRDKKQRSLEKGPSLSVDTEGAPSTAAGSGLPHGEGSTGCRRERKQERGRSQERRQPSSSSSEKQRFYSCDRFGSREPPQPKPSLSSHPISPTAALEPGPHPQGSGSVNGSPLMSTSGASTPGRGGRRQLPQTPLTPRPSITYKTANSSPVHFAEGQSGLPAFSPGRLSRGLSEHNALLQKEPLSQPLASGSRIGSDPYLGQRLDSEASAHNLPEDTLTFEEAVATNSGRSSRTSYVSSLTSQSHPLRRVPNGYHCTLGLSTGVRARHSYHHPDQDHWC
T2 sequence (O43497 whole entry): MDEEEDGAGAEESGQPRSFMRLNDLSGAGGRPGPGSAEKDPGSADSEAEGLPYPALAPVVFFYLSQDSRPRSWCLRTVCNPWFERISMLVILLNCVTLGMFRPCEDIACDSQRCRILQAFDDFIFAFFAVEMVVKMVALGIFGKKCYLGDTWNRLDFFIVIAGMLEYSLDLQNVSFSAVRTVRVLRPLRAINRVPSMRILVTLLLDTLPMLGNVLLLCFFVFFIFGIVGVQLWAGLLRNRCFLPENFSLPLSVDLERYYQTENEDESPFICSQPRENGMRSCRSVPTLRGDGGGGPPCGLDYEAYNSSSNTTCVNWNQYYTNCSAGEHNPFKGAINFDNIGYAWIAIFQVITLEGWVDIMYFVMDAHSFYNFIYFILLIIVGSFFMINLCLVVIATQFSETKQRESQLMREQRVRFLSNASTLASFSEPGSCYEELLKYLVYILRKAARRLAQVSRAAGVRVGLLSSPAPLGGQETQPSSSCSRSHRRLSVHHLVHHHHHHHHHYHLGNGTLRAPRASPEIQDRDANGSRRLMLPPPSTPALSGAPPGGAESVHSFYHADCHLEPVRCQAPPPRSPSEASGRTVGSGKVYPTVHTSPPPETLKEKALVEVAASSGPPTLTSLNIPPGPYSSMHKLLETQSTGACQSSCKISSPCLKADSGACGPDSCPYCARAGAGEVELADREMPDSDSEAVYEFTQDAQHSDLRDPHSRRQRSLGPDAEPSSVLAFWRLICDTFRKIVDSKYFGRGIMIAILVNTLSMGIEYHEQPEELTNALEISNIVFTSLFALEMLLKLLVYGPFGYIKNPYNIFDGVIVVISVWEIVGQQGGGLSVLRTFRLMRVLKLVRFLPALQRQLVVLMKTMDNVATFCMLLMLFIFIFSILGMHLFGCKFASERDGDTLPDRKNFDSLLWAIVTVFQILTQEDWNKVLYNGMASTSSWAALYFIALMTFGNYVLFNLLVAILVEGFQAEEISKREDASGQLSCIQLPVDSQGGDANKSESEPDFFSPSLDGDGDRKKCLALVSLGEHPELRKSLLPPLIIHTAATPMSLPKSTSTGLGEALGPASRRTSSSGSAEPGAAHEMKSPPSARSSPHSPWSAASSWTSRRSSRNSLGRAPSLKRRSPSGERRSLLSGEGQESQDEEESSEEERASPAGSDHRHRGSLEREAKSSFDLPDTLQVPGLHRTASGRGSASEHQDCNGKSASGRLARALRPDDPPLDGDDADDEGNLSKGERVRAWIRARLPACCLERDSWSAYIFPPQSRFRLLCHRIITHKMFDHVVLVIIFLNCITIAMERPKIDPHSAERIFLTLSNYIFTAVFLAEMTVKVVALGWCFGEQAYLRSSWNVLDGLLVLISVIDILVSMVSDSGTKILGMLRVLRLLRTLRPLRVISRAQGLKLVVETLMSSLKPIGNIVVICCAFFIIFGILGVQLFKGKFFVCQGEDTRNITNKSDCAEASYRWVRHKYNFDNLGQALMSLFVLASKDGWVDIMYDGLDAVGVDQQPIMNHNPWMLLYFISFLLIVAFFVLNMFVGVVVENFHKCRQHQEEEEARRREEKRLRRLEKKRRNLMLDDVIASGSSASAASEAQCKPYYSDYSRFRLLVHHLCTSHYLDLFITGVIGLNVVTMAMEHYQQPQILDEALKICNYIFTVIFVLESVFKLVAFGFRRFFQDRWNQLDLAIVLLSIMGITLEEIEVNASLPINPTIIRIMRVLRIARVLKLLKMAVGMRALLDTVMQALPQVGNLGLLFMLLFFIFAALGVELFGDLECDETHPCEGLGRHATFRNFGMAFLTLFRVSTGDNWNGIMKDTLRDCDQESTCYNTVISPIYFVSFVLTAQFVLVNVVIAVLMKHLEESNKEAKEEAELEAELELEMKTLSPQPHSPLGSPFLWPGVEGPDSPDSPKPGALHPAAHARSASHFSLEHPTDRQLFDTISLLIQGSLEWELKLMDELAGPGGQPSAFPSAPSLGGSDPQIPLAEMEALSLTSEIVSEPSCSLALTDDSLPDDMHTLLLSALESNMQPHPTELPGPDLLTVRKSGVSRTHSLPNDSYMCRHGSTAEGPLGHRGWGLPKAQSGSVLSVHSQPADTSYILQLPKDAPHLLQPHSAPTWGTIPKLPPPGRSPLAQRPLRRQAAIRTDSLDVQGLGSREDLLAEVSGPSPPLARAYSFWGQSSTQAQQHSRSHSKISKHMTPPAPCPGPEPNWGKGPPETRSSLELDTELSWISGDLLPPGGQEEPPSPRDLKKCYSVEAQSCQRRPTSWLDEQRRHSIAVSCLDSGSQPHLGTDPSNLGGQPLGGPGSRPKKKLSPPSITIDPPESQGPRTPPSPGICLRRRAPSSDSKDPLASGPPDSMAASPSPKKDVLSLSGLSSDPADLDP

The IC50 is the point on the concentration scale where inhibition reaches its midpoint. Turning to `O=C(CCCCC(c1ccc(F)cc1)c1ccc(F)cc1)NCC#CCNC(=O)c1ccc(Cl)cc1` [Compound P28, N-{4-[6,6-Bis-(4-fluoro-phenyl)-hexanoylamino]-but-2-ynyl}-4-chloro-benzamide], the 50% inhibitory concentration (IC50) was determined as 360 nM in test [1] (setting [7]), 360 nM in test [1] (setting [8]), 72 nM in test [2] (setting [9]) and 29 nM in test [2] (setting [10]). The Emax at 10 µM stood at 61% in test [3] and 25% in test [4]. For the same molecule, the “BP SHR at 4 hrs % reduction” value in test [5] came to 13 n = 4%.
As for `O=C(CCCCC(c1ccc(F)cc1)c1ccc(F)cc1)NCC#CCNC(=O)c1ccc(F)cc1` [Compound P29, N-{4-[6,6-Bis-(4-fluoro-phenyl)-hexanoylamino]-but-2-ynyl}-4-fluoro-benzamide], the IC50 in test [1] (setting [7]) was 290 nM; in test [1] (setting [8]) it was 290 nM; in test [2] (setting [9]), 696 nM; in test [2] (setting [10]), 101 nM. Moreover, the values for the Emax at 10 µM in test [3] and in test [4] were 63% and 51%, respectively.
In the case of `O=C(CCCCC(c1ccc(F)cc1)c1ccc(F)cc1)NC/C=C/CNC(=O)c1cc(C(F)(F)F)cc(C(F)(F)F)c1` [Compound P15, N-{(E)-4-[6,6-Bis-(4-fluoro-phenyl)-hexanoylamino]-but-2-enyl}-3,5-bis-trifluoromethyl-benzamide], the IC50 in test [1] (setting [7]) is 19 nM; in test [1] (setting [8]) it was 127 nM; in test [2] (setting [9]), 54 nM; in test [2] (setting [10]) it was 21 nM. In addition, the Emax at 10 µM in test [3] is 9%.
As to `CC(C)(C)c1ccc(C(=O)NCC#CCNC(=O)CCCCC(c2ccc(F)cc2)c2ccc(F)cc2)cc1` [Compound P24, N-{4-[6,6-Bis-(4-fluoro-phenyl)-hexanoylamino]-but-2-ynyl}-4-tert-butyl-benzamide], the Emax at 10 µM in test [3] came to 0%.
In the case of `CC(C)(C)c1ccc(C(=O)NC/C=C\CNC(=O)CCCCC(c2ccc(F)cc2)c2ccc(F)cc2)cc1` [Compound P4, N-{(Z)-4-[6,6-Bis-(4-fluoro-phenyl)-hexanoylamino]-but-2-enyl}-4-tert-butyl-benzamide], the IC50 is 86 nM in test [1] (setting [7]), 59 nM in test [1] (setting [8]), 38 nM in test [2] (setting [9]) and 12 nM in test [2] (setting [10]). Also, the Emax at 10 µM in test [3] is 8%.
`O=C(CCCCC(c1ccc(F)cc1)c1ccc(F)cc1)NC/C=C\CNC(=O)COc1ccc(Cl)cc1` [Compound P6, 6,6-Bis-(4-fluoro-phenyl)-hexanoic acid{(Z)-4-[2-(4-chloro-phenoxy)-acetylamino]-but-2-enyl}-amide]: the half-maximal inhibitory concentration (IC50) was determined as 58 nM in test [1] (setting [7]), 27 nM in test [1] (setting [8]), 128 nM in test [2] (setting [9]) and 67 nM in test [2] (setting [10]). In addition, the figures for the Emax at 10 µM in test [3] and in test [4] were 35% and 28%, respectively.
For the molecule `O=C(CC(c1ccccc1)c1ccccc1)NCC#CCN(Cc1ccccn1)Cc1ccccn1` [Compound P32, N-[4-(Bis-pyridin-2-ylmethyl-amino)-but-2-ynyl]-3,3-diphenyl-propionamide], the IC50 in test [1] (setting [7]) came out at 2200 nM; in test [1] (setting [8]), 568 nM; in test [2] (setting [9]), 1800 nM; in test [2] (setting [10]), 1100 nM. Also, the Emax at 10 µM in test [3] was determined as 50%; in test [4] it was 49%.
As to `COc1ccc(C(=O)NCC#CCNC(=O)CCCCC(c2ccc(F)cc2)c2ccc(F)cc2)cc1` [Compound P27, N-{4-[6,6-Bis-(4-fluoro-phenyl)-hexanoylamino]-but-2-ynyl}-4-methoxy-benzamide], the Emax at 10 µM was determined as 41% in test [3] and 51% in test [4].
As for `O=C(CCCCC(c1ccc(F)cc1)c1ccc(F)cc1)NC/C=C\CNC(=O)c1ccc(F)cc1` [Compound P10, N-{(Z)-4-[6,6-Bis-(4-fluoro-phenyl)-hexanoylamino]-but-2-enyl}-4-fluoro-benzamide], the IC50 in test [1] (setting [7]) was found to be 182 nM; in test [1] (setting [8]), 112 nM; in test [2] (setting [9]), 20 nM; in test [2] (setting [10]) it was 6 nM. In addition, the Emax at 10 µM in test [3] was determined as 35%; in test [4] it was 38%.
For the molecule `CC(C)c1ccc(C(=O)NCCCCNC(=O)CCCCC(c2ccc(F)cc2)c2ccc(F)cc2)cc1` [Compound P37, N-{4-[6,6-Bis-(4-fluoro-phenyl)-hexanoylamino]-butyl}-4-isopropyl-benzamide], the IC50 was 310 nM in test [1] (setting [7]), 300 nM in test [1] (setting [8]), 31 nM in test [2] (setting [9]) and 8 nM in test [2] (setting [10]). Further, the Emax at 10 µM stood at 42% in test [3] and 51% in test [4].
Regarding `O=C(CCCCC(c1ccc(F)cc1)c1ccc(F)cc1)NC/C=C\CNC(=O)c1cc(C(F)(F)F)cc(C(F)(F)F)c1` [Compound P5, N-{(Z)-4-[6,6-Bis-(4-fluoro-phenyl)-hexanoylamino]-but-2-enyl}-3,5-bis-trifluoromethyl-benzamide], the IC50 in test [1] (setting [7]) was 74 nM; in test [1] (setting [8]), 46 nM; in test [2] (setting [9]) it was 27 nM; in test [2] (setting [10]), 7 nM. For the same molecule, in test [3], the Emax at 10 µM was 10%.
In the case of `Cc1ccc(C(=O)NCC#CCNC(=O)CCCCC(c2ccc(F)cc2)c2ccc(F)cc2)cc1` [Compound P26, N-{4-[6,6-Bis-(4-fluoro-phenyl)-hexanoylamino]-but-2-ynyl}-4-methyl-benzamide], the IC50 in test [1] (setting [7]) is 144 nM; in test [1] (setting [8]), 40 nM; in test [2] (setting [9]) it was 336 nM; in test [2] (setting [10]), 202 nM. The Emax at 10 µM amounted to 40% in test [3] and 34% in test [4].
As to `COCC(=O)O[C@]1(CCN(C)CCCc2nc3ccccc3[nH]2)CCc2cc(F)ccc2[C@@H]1C(C)C` [Mibefradil], the “selective for T-type over L-type channels” value in test [6] is recorded as 10-30 fold.
Consider `Cc1ccc(C(=O)NC/C=C/CNC(=O)CCCCC(c2ccc(F)cc2)c2ccc(F)cc2)cc1` [Compound P19, N-{(E)-4-[6,6-Bis-(4-fluoro-phenyl)-hexanoylamino]-but-2-enyl}-4-methyl-benzamide], for which the half-inhibitory concentration (IC50) in test [1] (setting [7]) was 182 nM; in test [1] (setting [8]), 132 nM; in test [2] (setting [9]) it was 22 nM; in test [2] (setting [10]), 9 nM.
Regarding `COc1c(C(C)(C)C)cc(C(=O)NCC#CCNC(=O)CCCCC(c2ccc(F)cc2)c2ccc(F)cc2)cc1C(C)(C)C` [Compound P23, N-{4-[6,6-Bis-(4-fluoro-phenyl)-hexanoylamino]-but-2-ynyl}-3,5-di-tert-butyl-4-methoxy-benzamide], the Emax at 10 µM in test [3] was found to be 0%.
